molecular target: Coagulation factor XI (Homo sapiens) (UniProt P03951); assay: Inhibition of human factor 11a using GPR-AFC as substrate preincubated for 30 mins followed by substrate addition and measured after 60 mins by fluorescence based analysis
Sequence (P03951 whole entry, looked up): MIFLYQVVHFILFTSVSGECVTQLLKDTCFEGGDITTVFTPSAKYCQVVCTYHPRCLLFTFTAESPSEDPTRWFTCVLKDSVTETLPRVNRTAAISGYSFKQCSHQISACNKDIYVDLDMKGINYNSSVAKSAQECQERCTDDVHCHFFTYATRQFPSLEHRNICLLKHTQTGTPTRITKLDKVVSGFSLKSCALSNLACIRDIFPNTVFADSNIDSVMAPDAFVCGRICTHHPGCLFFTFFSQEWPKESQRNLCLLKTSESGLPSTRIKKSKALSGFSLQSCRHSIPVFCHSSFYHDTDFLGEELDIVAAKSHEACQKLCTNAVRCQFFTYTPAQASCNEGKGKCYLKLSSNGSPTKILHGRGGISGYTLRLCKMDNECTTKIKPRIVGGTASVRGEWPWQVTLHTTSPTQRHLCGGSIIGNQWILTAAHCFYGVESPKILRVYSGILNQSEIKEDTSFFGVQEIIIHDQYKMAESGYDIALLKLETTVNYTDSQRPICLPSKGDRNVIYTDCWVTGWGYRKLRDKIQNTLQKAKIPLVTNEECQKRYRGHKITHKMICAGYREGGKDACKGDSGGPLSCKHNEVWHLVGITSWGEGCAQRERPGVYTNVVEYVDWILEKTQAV

Row | Compound | IC50
1 | O=C1Nc2ccc(Cl)c(F)c2[C@]2(CCN(c3cncc(C(=O)NCc4ccc(Cn5ccccc5=O)nc4)c3)C2)O1 | 10 µM
2 | Cc1cnn(Cc2ccc(CNC(=O)c3cncc(N4CC[C@]5(C4)OC(=O)Nc4ccc(Cl)c(F)c45)c3)cn2)c1 | 10 µM
3 | Cc1cnn(Cc2ccc(CNC(=O)c3cnnc(N4CC[C@]5(C4)OC(=O)Nc4ccc(Cl)c(F)c45)c3)cc2)c1 | 10 µM
4 | O=C1Nc2ccc(Cl)c(F)c2[C@]2(CCN(c3cncc(C(=O)NCc4ccc(N5CCC5)nc4)n3)C2)O1 | 10 µM
5 | CN1CCN(c2ccc(CNC(=O)c3cncc(N4CC[C@]5(C4)OC(=O)Nc4ccc(Cl)c(F)c45)n3)cn2)CC1 | 10 µM
6 | N#CC1(F)CN(Cc2ccc(CNC(=O)c3cnnc(N4CC[C@]5(C4)OC(=O)Nc4ccc(Cl)c(F)c45)c3)cc2)C1 | 10 µM

The remaining compounds from weak to strong by IC50, led by results:

Row | IC50 | Compound
7 | 10 µM | C[C@H]1CCN(c2ccc(CNC(=O)c3cncc(N4CC[C@]5(C4)OC(=O)Nc4ccc(Cl)c(F)c45)n3)cn2)C1
8 | 10 µM | CN1CCCC1c1ccc(CNC(=O)c2cnnc(N3CC[C@]4(C3)OC(=O)Nc3ccc(Cl)c(F)c34)c2)cc1 (stereo not given in full)
9 | 10 µM | O=C1Nc2ccc(Cl)c(F)c2[C@]2(CCN(c3cncc(C(=O)NCc4ccc(Cn5ccccc5=O)nc4)n3)C2)O1
10 | 7.44 µM | C[C@H]1CCN(c2ccc(CNC(=O)c3cnnc(N4CC[C@]5(C4)OC(=O)Nc4ccc(Cl)c(F)c45)c3)cn2)C1

— BindingDB's records for PubMed 36793429 (Therachem Research Medilab, 2023)
